Data on one molecule can be found in patent publication US20020042121A1, “METHOD FOR MEASURING THE ASSOCIATION OF SUBSTRUCTURES OF PATHOLOGICAL PROTEIN DEPOSITIONS” (priority 1997, published 2002).

The experiment addresses T1, synthetic Aβ1-42 aggregates (Homo sapiens, UniProt P05067).
T1 construct: synthetic Aβ1-42 aggregates
Kind of experiment: FCS measurement of association of the probe Aβ1-42-Cy2 to Aβ1-42 aggregates in the presence of a suspected active substance (screening model). It is filed as biochemical. The text has this: A screening method for detecting active substances for the treatment of diseases associated with pathological protein depositions, which is analogous with the method according to the invention, is based on the fact that the association of substructures of the pathological protein depositions, structures forming pathological protein depositions, structures corresponding to pathological protein depositions and/or pathological protein depositions to substructures of the pathological protein depositions, structures forming pathological protein depositions, structures corresponding to pathological protein depositions as targets is measured in the presence of suspected active substances. As an alternative, association of substructures of pathological protein depositions, structures forming pathological protein depositions, structures corresponding to pathological protein depositions and/or pathological protein depositions to substructures of the pathological protein depositions, structures forming pathological protein depositions, structures corresponding to pathological protein depositions as targets is first performed, and then the reversal of the association under the action of suspected active substances is observed. Then, those compounds are identified as active substances which are capable of causing a reversal of the association in a significant way. […]

T1 sequence (P05067 672-713 limits assumed): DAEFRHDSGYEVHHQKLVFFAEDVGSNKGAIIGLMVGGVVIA

Regarding `Nc1c(/N=N/c2ccc(-c3ccc(/N=N/c4cc(S(=O)(=O)O)c5ccccc5c4N)cc3)cc2)cc(S(=O)(=O)O)c2ccccc12` [Congo red], the “detectable peaks as compared to the control batch” value (1 mM Congo red, FCS, 20 measurements each with one minute of measuring time, FIG. 13 bottom vs top) was “significant decrease of the detectable peaks”. Also, where the note is “read-out: decrease of the signal intensity of the homologous association to”, the activity at 1000 µM was found to be 20%.
